Measured values: US20080234236A1, “REDUCTION OF ADVERSE EVENTS AFTER PERCUTANEOUS INTERVENTION BY USE OF A THROMBIN RECEPTOR ANTAGONIST” (priority 2007, published 2008)
Several values for one entry are separate records, joined by “and”; a condition that tells them apart may be missing. Equal entries are not always repeated.

How the values were obtained:
[1] = Laboratory safety tests and ECGs at doses and durations studied to date; type: in vivo; settings: doses and treatment duration studied to date
Text: Overall, the study drug was generally well-tolerated.

platelets [2] = assay: Platelet activation (expression of P-selectin or CD40 ligand); design: species or system humans; settings: in vivo
human platelets = assay: TRAP stimulated human platelet aggregation; type: cell-based
Text: Schering-Plough Corp. is developing SCH 530348, which is a selective inhibitor of the primary thrombin receptor, PAR-1 (protease-activated receptor-1), on human platelets. […] Current clinical development of SCH 530348 is directed toward approval of a therapy that is adjunctive to current standard of care, e.g., the ADP antagonist clopidogrel and aspirin. However, an avoidance of bleeding risk by administration of an appropriate thrombin receptor antagonist as a monotherapy may have potential advantages over some of the currently approved antiplatelet drugs such as Plavix® (clopidogrel) and Ticlid® (ticolpidine) in certain situations such as PCI. Furthermore, the standard of care may evolve to encompass other ADP antagonists such as prasugrel. The treatment of PCI patients by administration of a thrombin receptor antagonist as adjunctive therapy to the standard of care encompasses future standards of care such as prasugrel, or any other ADP antagonist, and aspirin.

platelets [3] = assay: ADP-induced platelet aggregation; type: in vivo, humans; settings: loading and maintenance doses
Description: (§1) A pharmacodynamic substudy incorporating light aggregometry was performed under stringent physiologic conditions and read by a central core laboratory. […] The term “therpeutically effective amount of a thrombin receptor antagonist” will be understood to mean that quantity of the thrombin receptor antagonist sufficient to achieve at least 80% inhibition of TRAP mediated platelet aggregation.
(§2) Similarly, there is no effect on arachidonic acid (“AA”) -induced platelet aggregation (see FIGS. 16 and 17) or collagen-induced platelet aggregation (see FIGS. 18-21).

[4] = Phase 2 study (P03573): bleeding in secondary cohort undergoing CABG; type: in vivo, humans; settings: for Any bleed, patients (%) / Chest Tube Drainage / TIMI Major/Minor bleeding, patients (%) / Transfusion PRBC, patients (%) / non-TIMI bleeding, patients (%): secondary cohort (CABG treated)
Text: (§3) The behavior of SCH 530348 in humans was further studied in a Phase 2 clinical development program. A key safety issue for SCH 530348 is the potential for incremental bleeding when added to standard of care with other oral antiplatelet therapies as well as parenteral antithrombotics. Therefore, a single Phase 2 study (P03573) was completed to evaluate the safety of SCH 530348 in patients at high risk of bleeding events, i.e., those patients undergoing non-emergent PCI (percutaneous coronary intervention). The goals of this Phase 2 study were to: • Evaluate the safety of SCH 530348 in addition to standard of care with respect to TIMI major and minor bleeding; and, • Observe the effects of SCH 530348 on major adverse cardiac events (“MACE”) in patients successfully completing an interventional procedure.
The use of TIMI bleeding classification alone is of limited value and can be misleading in defining bleeding risk in patients undergoing CABG because of the routine use of packed red blood cell (“PRBC”) transfusions to prime the pump and extracorporeal oxygenator, and the resultant decline in hemoglobin that results from the administration of parenteral fluids during surgery. Therefore, other clinically meaningful measures (e.g., chest tube drainage, transfusions, need for re-exploration) were examined.

platelets [5] = assay: Pharmacodynamic substudy: TRAP induced platelet aggregation (light aggregometry); type: in vivo, humans; settings: for Tested population achieving clinically relevant inhibition of platelet aggregation: thirty and sixty days; for Maximum inhibition of TRAP-induced platelet aggregation: 1-2 hours post dose
Description: as §1

platelets [6] = assay: Collagen-induced platelet aggregation; type: in vivo, humans; settings: collagen 5 and 50 μg/ml; loading and maintenance doses
Description: as §1, §2

[7] = Phase 2 study (P03573): bleeding in secondary cohort (medically treated); type: in vivo, humans
Text: as §3
The primary endpoint (directed to evaluating safety) was the combined […] (“TIMI”) major and TIMI minor bleeding over sixty days in the primary evaluable cohort. Though the study was not powered to evaluate efficacy, a secondary endpoint (directed to evaluating efficacy) was the incidence of the composite of death and major adverse cardiac events (“MACE”) in the primary cohort. MACE includes myocardial infarction, urgent revascularization, and ischemia requiring hospitalization. Pharmacokinetics and pharmacodynamics were assessed at selected sites across the treatment groups. Other secondary endpoints included the incidence of TIMI major and minor bleeding in the secondary evaluable cohort i.e., those individuals who received the loading dose only.
The secondary cohort consisted of non-PCI patients who were treated medically (n=382) or underwent CABG (n=75). […] These included two vascular access site and one post-operative (surgical hip replacement) bleed.

hERG = hERG (Homo sapiens, UniProt Q12809); assay: hERG voltage clamp assay; type: cell-based
Sequence of hERG (Q12809 whole entry): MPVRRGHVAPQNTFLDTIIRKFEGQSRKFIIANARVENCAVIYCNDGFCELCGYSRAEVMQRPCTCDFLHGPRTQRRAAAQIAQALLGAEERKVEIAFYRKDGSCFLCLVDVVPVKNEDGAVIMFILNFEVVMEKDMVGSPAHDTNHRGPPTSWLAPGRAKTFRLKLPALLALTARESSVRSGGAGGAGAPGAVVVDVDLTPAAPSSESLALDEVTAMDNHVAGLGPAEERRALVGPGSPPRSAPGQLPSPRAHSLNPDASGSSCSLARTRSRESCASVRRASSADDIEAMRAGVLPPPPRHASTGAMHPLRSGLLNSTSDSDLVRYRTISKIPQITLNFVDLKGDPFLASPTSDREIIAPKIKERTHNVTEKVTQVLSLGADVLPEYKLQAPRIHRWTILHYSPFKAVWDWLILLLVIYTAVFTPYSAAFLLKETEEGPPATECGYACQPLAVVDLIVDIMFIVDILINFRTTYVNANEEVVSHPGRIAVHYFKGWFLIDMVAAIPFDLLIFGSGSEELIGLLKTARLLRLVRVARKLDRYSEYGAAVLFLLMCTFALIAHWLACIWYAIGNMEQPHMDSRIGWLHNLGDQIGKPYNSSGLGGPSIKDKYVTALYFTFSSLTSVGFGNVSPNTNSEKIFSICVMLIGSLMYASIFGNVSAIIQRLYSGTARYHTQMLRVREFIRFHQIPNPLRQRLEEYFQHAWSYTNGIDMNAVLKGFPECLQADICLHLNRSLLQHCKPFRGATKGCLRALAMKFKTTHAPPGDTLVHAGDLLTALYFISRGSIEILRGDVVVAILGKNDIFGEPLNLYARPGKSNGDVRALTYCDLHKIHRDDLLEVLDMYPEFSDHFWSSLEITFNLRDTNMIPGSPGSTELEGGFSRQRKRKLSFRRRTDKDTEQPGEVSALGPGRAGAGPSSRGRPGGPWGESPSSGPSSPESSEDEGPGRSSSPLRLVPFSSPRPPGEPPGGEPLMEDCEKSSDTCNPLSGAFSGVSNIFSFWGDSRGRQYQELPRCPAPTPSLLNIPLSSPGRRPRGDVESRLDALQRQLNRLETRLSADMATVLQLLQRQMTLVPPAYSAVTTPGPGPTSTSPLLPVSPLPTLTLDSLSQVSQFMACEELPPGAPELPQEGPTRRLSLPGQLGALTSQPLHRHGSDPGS

[8] = monkey, in vivo
platelets [9] = assay: Arachidonic acid (AA)-induced platelet aggregation; type: in vivo, humans; settings: loading and maintenance doses
Description: as §1, §2

platelets [10] = assay: Ex-vivo platelet aggregation in whole blood; design: species or system cynomolgus monkeys; settings: oral dose of 0.1 mg/kg

CCOC(=O)N[C@@H]1CC[C@@H]2[C@@H](C1)C[C@H]1C(=O)O[C@H](C)[C@H]1[C@H]2/C=C/c1ccc(-c2cccc(F)c2)cn1.O=S(=O)(O)O [SCH 530348, ethyl [(1R,3aR,4aR,6R,8aR,9S,9aS)-9-[(E)-2-[5-(3-fluorophenyl)-2-pyridinyl]ethenyl]-dodecahydro-1-methyl-3-oxonaphtho[2,3-c]furan-6-yl] carbamate bisulfate]
Changes in laboratory safety tests or ECGs [1]: no significant treatment-related changes or abnormalities | Platelet activation (expression of P-selectin or CD40 ligand) (platelets [2]): without activating platelets | IC50 (human platelets): 15 nM | Effect on ADP-induced platelet aggregation (platelets [3]): no effect | Total chest tube drainage, proportion with >2 units PRBC transfusion, need for re-exploration versus placebo ([4]; patients who underwent CABG): no increase | Any bleed, patients (%) ([4]; 10 mg loading dose): 100% | Chest Tube Drainage ([4]; 10 mg loading dose): 1393 mL | TIMI Major/Minor bleeding, patients (%) ([4]; 10 mg loading dose): 90% | Transfusion PRBC, patients (%) ([4]; 10 mg loading dose): 80% | non-TIMI bleeding, patients (%) ([4]; 10 mg loading dose): 30% and 20% | Any bleed, patients (%) ([4]; 20 mg loading dose): 100% | Chest Tube Drainage ([4]; 20 mg loading dose): 1015 mL | TIMI Major/Minor bleeding, patients (%) ([4]; 20 mg loading dose): 94% | Transfusion PRBC, patients (%) ([4]; 20 mg loading dose): 50% | non-TIMI bleeding, patients (%) ([4]; 20 mg loading dose): 33% | Any bleed, patients (%) ([4]; 40 mg loading dose): 100% | Chest Tube Drainage ([4]; 40 mg loading dose): 870 mL | TIMI Major/Minor bleeding, patients (%) ([4]; 40 mg loading dose): 92% | Transfusion PRBC, patients (%) ([4]; 40 mg loading dose): 63% | non-TIMI bleeding, patients (%) ([4]; 40 mg loading dose): 39% | Any bleed, patients (%) ([4]; All SCH 530348): 100% | Chest Tube Drainage ([4]; All SCH 530348): 988 mL | TIMI Major/Minor bleeding, patients (%) ([4]; All SCH 530348): 94% and 92% | Transfusion PRBC, patients (%) ([4]; All SCH 530348): 62% | non-TIMI bleeding, patients (%) ([4]; All SCH 530348): 35% and 33% | Tested population achieving clinically relevant inhibition of platelet aggregation (platelets [5]; 1.0 mg/day maintenance): 100% | Tested population achieving clinically relevant inhibition of platelet aggregation (platelets [5]; 2.5 mg/day maintenance): 100% | Maximum inhibition of TRAP-induced platelet aggregation (platelets [5]; 20 mg): > 80% | Time to therapeutically effective levels (at least 80%) of platelet inhibition (platelets [5]; 40 mg loading dose): in as little as one hour | Tested population with clinically relevant platelet aggregation inhibition within 2 hours (platelets [5]; 40 mg loading dose (only this dose)): more than 90% | Patients with ≧80% inhibition of TRAP induced platelet aggregation (platelets [5]; 40 mg loading dose, 1 hour): Approximately 68% | Patients with ≧80% inhibition of TRAP induced platelet aggregation (platelets [5]; 40 mg loading dose, 1.5 hours): ~82% | Patients with ≧80% inhibition of TRAP induced platelet aggregation (platelets [5]; 40 mg loading dose, 2 hours): ~96% | Maximum inhibition of TRAP-induced platelet aggregation (platelets [5]; 40 mg): > 80% | Inhibition of platelet aggregation at thirty and sixty days (platelets [5]; all three maintenance doses (0.5, 1.0, 2.5 mg)): clinically relevant inhibition of platelet aggregation | Inhibition of TRAP-induced platelet aggregation, dose dependency (platelets [5]; in vivo): dose-related inhibition | Inhibition of TRAP-induced platelet aggregation (platelets [5]; multiple doses of 1 mg/day): significantly inhibited | Inhibition of TRAP-induced platelet aggregation (platelets [5]; single doses as low as 5 mg): significantly inhibited | Effect on collagen-induced platelet aggregation (platelets [6]): no effect | Any bleed, patients (%) ([7]; 10 mg loading dose): 8% | non-TIMI bleeding, patients (%) ([7]; 10 mg loading dose): 8% | Any bleed, patients (%) ([7]; 20 mg loading dose): 12 (12%) | TIMI Major/Minor bleeding, patients (%) ([7]; 20 mg loading dose): 2 (2%) | TIMI Minor bleeding, patients (%) ([7]; 20 mg loading dose): 2 (2%) | non-TIMI bleeding, patients (%) ([7]; 20 mg loading dose): 11 (11%) | Any bleed, patients (%) ([7]; 40 mg loading dose): 10% | TIMI Major/Minor bleeding, patients (%) ([7]; 40 mg loading dose): 1 (1%) | TIMI Minor bleeding, patients (%) ([7]; 40 mg loading dose): 1 (1%) | non-TIMI bleeding, patients (%) ([7]; 40 mg loading dose): 10% | Any bleed, patients (%) ([7]; All SCH 530348): 10% | TIMI Major/Minor bleeding, patients (%) ([7]; All SCH 530348): 1% | TIMI Minor bleeding, patients (%) ([7]; All SCH 530348): 1% | non-TIMI bleeding, patients (%) ([7]; All SCH 530348): 10% | IC50 (hERG): ~341 nM | QT prolongation [8]: no evidence of QT prolongation | Effect on arachidonic acid (AA)-induced platelet aggregation (platelets [9]): no effect | Inhibition of TRAP-driven platelet aggregation (ex-vivo) (platelets [10]): 100%
